Test results as given in ChEMBL document CHEMBL1201861, “Genomics of Drug Sensitity in Cancer screening data, Wellcome Trust Sanger Institute”.

Columns and labels:
Type in all cases: functional, cell-based
[1] = system: NCI-H650; assay: cells; details: Homo sapiens;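 also: growth inhibition of NCI-H650 cells, read out by a viability assay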
Description: SANGER: Inhibition of human NCI-H650 cell growth in a cell viability assay.

[2] = system: BFTC-909; assay: cells; details: Homo sapiens
Description: SANGER: Inhibition of human BFTC-909 cell growth in a cell viability assay.

[3] = system: RL; assay: cells; details: Homo sapiens
Description: SANGER: Inhibition of human RL cell growth in a cell viability assay.

[4] = system: NCI-H810; assay: cells; details: Homo sapiens;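 also: IC50 reflects inhibition of cancer cell line growth, read out with a cell viability assay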
Description: SANGER: Inhibition of human NCI-H810 cell growth in a cell viability assay.

[5] = system: RMG-I; assay: cells; details: Homo sapiens;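 also: growth inhibition of human RMG-I cells, read out with a cell viability assay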
Description: SANGER: Inhibition of human RMG-I cell growth in a cell viability assay.

[6] = system: KOSC-2; assay: cells; details: Homo sapiens;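 also: growth inhibition of KOSC-2 cells, read out by a cell viability assay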
Description: SANGER: Inhibition of human KOSC-2 cell growth in a cell viability assay.

[7] = system: A204; assay: cells; details: Homo sapiens;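 also: growth inhibition of human A204 cells, read out with a cell viability assay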
Description: SANGER: Inhibition of human A204 cell growth in a cell viability assay.

[8] = system: Kasumi 1; assay: cells; details: Homo sapiens;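 also: growth inhibition of human Kasumi-1 cells, read out by a cell viability assay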
Description: SANGER: Inhibition of human KASUMI-1 cell growth in a cell viability assay.

[9] = system: MDA-MB-361; assay: cells; details: Homo sapiens
[10] = system: OAW-28; assay: cells; details: Homo sapiens;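 also: growth inhibition of OAW-28 cells, read out with a cell viability assay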
Description: SANGER: Inhibition of human OAW-28 cell growth in a cell viability assay.

[11] = system: CAL-51; assay: cells; details: Homo sapiens;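 also: human CAL-51 cell line, growth inhibition read out via a cell viability assay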
Description: SANGER: Inhibition of human CAL-51 cell growth in a cell viability assay.

[12] = system: NCI-H2405; assay: cells; details: Homo sapiens;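 also: growth inhibition of the human cell line, read out with a cell viability assay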
Description: SANGER: Inhibition of human NCI-H2405 cell growth in a cell viability assay.

[13] = system: MHH-CALL-2; assay: cells; details: Homo sapiens;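 also: growth inhibition of the cell line, read out in a cell viability assay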
Description: SANGER: Inhibition of human MHH-CALL-2 cell growth in a cell viability assay.

[14] = system: HuP-T3; assay: cells; details: Homo sapiens;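 also: HuP-T3 cell growth inhibition, read out with a cell viability assay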
Description: SANGER: Inhibition of human HuP-T3 cell growth in a cell viability assay.

[15] = system: RVH-421; assay: cells; details: Homo sapiens
Description: SANGER: Inhibition of human RVH-421 cell growth in a cell viability assay.

[16] = system: MC-CAR; assay: cells; details: Homo sapiens;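 also: growth inhibition of the human MC-CAR cell line, read out by a cell viability assay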
Description: SANGER: Inhibition of human MC-CAR cell growth in a cell viability assay.

[17] = system: HCC1954; assay: cells; details: Homo sapiens;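 also: growth inhibition of human HCC1954 cells, read out with a cell viability assay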
Description: SANGER: Inhibition of human HCC1954 cell growth in a cell viability assay.

[18] = system: NCI-H1436; assay: cells; details: Homo sapiens;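 also: growth suppression of human NCI-H1436 cells, determined with a cell viability readout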
Description: SANGER: Inhibition of human NCI-H1436 cell growth in a cell viability assay.

[19] = system: CMK; assay: cells; details: Homo sapiens;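 also: growth inhibition of CMK cells, read out as cell viability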
Description: SANGER: Inhibition of human CMK cell growth in a cell viability assay.

[20] = system: P12-Ichikawa; assay: cells; details: Homo sapiens
[21] = system: MIA PaCa-2; assay: cells; details: Homo sapiens;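 also: growth inhibition of MIA PaCa-2 cells, read out with a cell viability assay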
Description: SANGER: Inhibition of human MIA-PaCa-2 cell growth in a cell viability assay.

[22] = system: HCC2157; assay: cells; details: Homo sapiens;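 also: growth inhibition of the cancer cell line, read out as cell viability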
Description: SANGER: Inhibition of human HCC2157 cell growth in a cell viability assay.

[23] = system: HCC70; assay: cells; details: Homo sapiens;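 also: cell viability assay measuring how strongly the compound suppresses proliferation of HCC70 cells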
Description: SANGER: Inhibition of human HCC70 cell growth in a cell viability assay.

[24] = system: D-392MG; assay: cells; details: Homo sapiens
[25] = system: CA46; assay: cells; details: Homo sapiens;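 also: growth inhibition of human CA46 cells, read out by a cell viability assay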
Description: SANGER: Inhibition of human CA46 cell growth in a cell viability assay.

[26] = system: SN12C; assay: cells; details: Homo sapiens;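 also: growth inhibition of human SN12C cells, measured by a cell viability assay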
Description: SANGER: Inhibition of human SN12C cell growth in a cell viability assay.

[27] = system: EFO-27; assay: cells; details: Homo sapiens;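 also: growth inhibition of EFO-27 cells, read out with a cell viability assay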
Description: SANGER: Inhibition of human EFO-27 cell growth in a cell viability assay.

[28] = system: SW1573; assay: cells; details: Homo sapiens;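 also: growth inhibition of SW1573 cells, read out with a cell viability assay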
Description: SANGER: Inhibition of human SW1573 cell growth in a cell viability assay.

[29] = system: NCI-H661; assay: cells; details: Homo sapiens;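 also: cell viability assay read-out, IC50 being the concentration that inhibits growth of the cells by half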
Description: SANGER: Inhibition of human NCI-H661 cell growth in a cell viability assay.

[30] = system: LC4-1; assay: cells; details: Homo sapiens;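 also: growth inhibition of LC4-1 cells, read out with a cell viability assay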
Description: SANGER: Inhibition of human LC4-1 cell growth in a cell viability assay.

[31] = system: NCI-N87; assay: cells; details: Homo sapiens;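 also: growth inhibition of human NCI-N87 cells, read out with a cell viability assay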
Description: SANGER: Inhibition of human NCI-N87 cell growth in a cell viability assay.

[32] = system: G-401; assay: cells; details: Homo sapiens
Description: SANGER: Inhibition of human G-401 cell growth in a cell viability assay.

[33] = system: IMR-5; assay: cells; details: Homo sapiens;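 also: growth inhibition of human IMR-5 cells, read out with a cell viability assay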
Description: SANGER: Inhibition of human IMR-5 cell growth in a cell viability assay.

[34] = system: NCI-H2087; assay: cells; details: Homo sapiens;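 also: growth inhibition determined with a cell viability readout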
Description: SANGER: Inhibition of human NCI-H2087 cell growth in a cell viability assay.

[35] = system: SIMA; assay: cells; details: Homo sapiens;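 also: growth inhibition of SIMA cells, measured with a cell viability readout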
Description: SANGER: Inhibition of human SIMA cell growth in a cell viability assay.

[36] = system: SCC-25; assay: cells; details: Homo sapiens;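 also: growth inhibition of SCC-25 cells, measured with a cell viability assay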
Description: SANGER: Inhibition of human SCC-25 cell growth in a cell viability assay.

[37] = system: MDA-MB-134-VI; assay: cells; details: Homo sapiens
Description: SANGER: Inhibition of human MDA-MB-134-VI cell growth in a cell viability assay.

[38] = system: SU-DHL-1; assay: SANGER: Inhibition of human SU-DHL-1 cell growth in a cell viability assay.
[39] = system: OAW-42; assay: cells; details: Homo sapiens;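 also: growth inhibition of OAW-42 cells, read out with a cell viability assay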
Description: SANGER: Inhibition of human OAW-42 cell growth in a cell viability assay.

[40] = system: WM-115; assay: cells; details: Homo sapiens
Description: SANGER: Inhibition of human WM-115 cell growth in a cell viability assay.

[41] = system: COLO-679; assay: cells; details: Homo sapiens
Description: SANGER: Inhibition of human COLO-679 cell growth in a cell viability assay.

[42] = system: NCI-H630; assay: cells; details: Homo sapiens;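 also: growth inhibition of NCI-H630 cells, read out with a cell viability assay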
Description: SANGER: Inhibition of human NCI-H630 cell growth in a cell viability assay.

[43] = system: KARPAS-422; assay: cells; details: Homo sapiens
Description: SANGER: Inhibition of human KARPAS-422 cell growth in a cell viability assay.

[44] = system: NCI-H28; assay: cells; details: Homo sapiens;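 also: growth inhibition of human NCI-H28 cells, read out as cell viability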
Description: SANGER: Inhibition of human NCI-H28 cell growth in a cell viability assay.

[45] = system: TE-15; assay: cells; details: Homo sapiens;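 also: cell viability readout of growth inhibition in TE-15 cells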
Description: SANGER: Inhibition of human TE-15 cell growth in a cell viability assay.

[46] = system: UACC-62; assay: cells; details: Homo sapiens;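 also: growth inhibition of human UACC-62 cells, read out by a cell viability assay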
Description: SANGER: Inhibition of human UACC-62 cell growth in a cell viability assay.

[47] = system: A2058; assay: cells; details: Homo sapiens;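 also: reduction of A2058 cell growth, read out with a viability assay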
Description: SANGER: Inhibition of human A2058 cell growth in a cell viability assay.

[48] = system: CAL-85-1; assay: cells; details: Homo sapiens;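 also: growth inhibition of human CAL-85-1 cells, read out with a cell viability assay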
Description: SANGER: Inhibition of human CAL-85-1 cell growth in a cell viability assay.

[49] = system: HSC-4; assay: cells; details: Homo sapiens;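 also: growth inhibition of human HSC-4 cells, read out with a cell viability assay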
Description: SANGER: Inhibition of human HSC-4 cell growth in a cell viability assay.

[50] = system: S-117; assay: cells; details: Homo sapiens
Description: SANGER: Inhibition of human S-117 cell growth in a cell viability assay.

[51] = system: T98G; assay: cells; details: Homo sapiens;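 also: growth inhibition of T98G cells, read out by a cell viability assay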
Description: SANGER: Inhibition of human T98G cell growth in a cell viability assay.

[52] = system: CAL-62; assay: cells; details: Homo sapiens;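 also: growth inhibition of CAL-62 cells, read out with a cell viability assay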
Description: SANGER: Inhibition of human CAL-62 cell growth in a cell viability assay.

[53] = system: AGS; assay: cells; details: Homo sapiens;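 also: growth inhibition of AGS cells, determined with a cell viability assay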
Description: SANGER: Inhibition of human AGS cell growth in a cell viability assay.

[54] = system: DK-MG; assay: cells; details: Homo sapiens;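 also: growth inhibition of DK-MG cells, read out with a cell viability assay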
Description: SANGER: Inhibition of human DK-MG cell growth in a cell viability assay.

[55] = system: AU565; assay: cells; details: Homo sapiens;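 also: cell viability assay measuring growth inhibition of human AU565 cells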
Description: SANGER: Inhibition of human AU565 cell growth in a cell viability assay.

[56] = system: NCI-H1882; assay: cells; details: Homo sapiens;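 also: growth inhibition of the cell line, determined with a viability assay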
Description: SANGER: Inhibition of human NCI-H1882 cell growth in a cell viability assay.

[57] = system: KP-4; assay: cells; details: Homo sapiens;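 also: human KP-4 cells, with growth inhibition read out through a cell viability assay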
Description: SANGER: Inhibition of human KP-4 cell growth in a cell viability assay.

[58] = system: SK-MES-1; assay: cells; details: Homo sapiens;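 also: growth inhibition of human SK-MES-1 cells, read out with a cell viability assay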
Description: SANGER: Inhibition of human SK-MES-1 cell growth in a cell viability assay.

[59] = system: CAMA-1; assay: cells; details: Homo sapiens;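 also: growth inhibition of CAMA-1 cells, read out with a cell viability assay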
Description: SANGER: Inhibition of human CAMA-1 cell growth in a cell viability assay.

[60] = system: HMV-2 cell line; assay: cells; details: Homo sapiens;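 also: growth inhibition of HMV-II cells, read out with a cell viability assay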
Description: SANGER: Inhibition of human HMV-II cell growth in a cell viability assay.

[61] = system: RPMI-7951; assay: cells; details: Homo sapiens
Description: SANGER: Inhibition of human RPMI-7951 cell growth in a cell viability assay.

[62] = system: PANC-03-27; assay: cells; details: Homo sapiens
Description: SANGER: Inhibition of human PANC-03-27 cell growth in a cell viability assay.

[63] = system: SW13; assay: cells; details: Homo sapiens;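 also: IC50 is inhibition of SW13 cell growth, read out with a cell viability assay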
Description: SANGER: Inhibition of human SW13 cell growth in a cell viability assay.

[64] = system: SKG-IIIa; assay: cells; details: Homo sapiens;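 also: cell growth inhibition, read out with a cell viability assay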
Description: SANGER: Inhibition of human SKG-IIIa cell growth in a cell viability assay.

[65] = system: NB17; assay: cells; details: Homo sapiens;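 also: growth inhibition of NB17 cells, read out with a cell viability assay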
Description: SANGER: Inhibition of human NB17 cell growth in a cell viability assay.

Structure (SMILES): Fc1cc(-c2cc[nH]/c(=N/c3ccc(-n4cnc(N5CCOCC5)n4)cc3)n2)cc(N2CCOCC2)c1
- IC50 [1]: 141 nM
- IC50 [2]: 838 nM
- IC50 [3]: 1590 nM
- IC50 [4]: 208 nM
- IC50 [5]: 1250 nM
- IC50 [6]: 531 nM
- IC50 [7]: 165 nM
- IC50 [8]: 340 nM
- IC50 [9]: 1070 nM
- IC50 [10]: 1450 nM
- IC50 [11]: 219 nM
- IC50 [12]: 1210 nM
- IC50 [13]: 762 nM
- IC50 [14]: > 5120 nM
- IC50 [15]: 415 nM
- IC50 [16]: 380 nM
- IC50 [17]: 1220 nM
- IC50 [18]: 1180 nM
- IC50 [19]: 545 nM
- IC50 [20]: 3810 nM
- IC50 [21]: 1400 nM
- IC50 [22]: 494 nM
- IC50 [23]: 350 nM
- IC50 [24]: 1930 nM
- IC50 [25]: 333 nM
- IC50 [26]: 1150 nM
- IC50 [27]: 413 nM
- IC50 [28]: 881 nM
- IC50 [29]: 501 nM
- IC50 [30]: 431 nM
- IC50 [31]: > 5120 nM
- IC50 [32]: 380 nM
- IC50 [33]: 2050 nM
- IC50 [34]: 341 nM
- IC50 [35]: 782 nM
- IC50 [36]: 196 nM
- IC50 [37]: 4680 nM
- IC50 [38]: 346 nM
- IC50 [39]: 877 nM
- IC50 [40]: > 5120 nM
- IC50 [41]: 250 nM
- IC50 [42]: 544 nM
- IC50 [43]: 406 nM
- IC50 [44]: 340 nM
- IC50 [45]: 375 nM
- IC50 [46]: 370 nM
- IC50 [47]: 500 nM
- IC50 [48]: 881 nM
- IC50 [49]: 4250 nM
- IC50 [50]: > 5120 nM
- IC50 [51]: 567 nM
- IC50 [52]: 893 nM
- IC50 [53]: 415 nM
- IC50 [54]: > 5120 nM
- IC50 [55]: 285 nM
- IC50 [56]: 1080 nM
- IC50 [57]: 577 nM
- IC50 [58]: 153 nM
- IC50 [59]: > 5120 nM
- IC50 [60]: 151 nM
- IC50 [61]: 721 nM
- IC50 [62]: 271 nM
- IC50 [63]: 1380 nM
- IC50 [64]: 4890 nM

Structure (SMILES): CC[C@]1(O)C[C@@H]2CN(CCc3c([nH]c4ccccc34)[C@@](C(=O)OC)(c3cc4c(cc3OC)N(C)[C@H]3[C@@](O)(C(=O)OC)[C@H](OC(C)=O)[C@]5(CC)C=CCN6CC[C@]43[C@@H]65)C2)C1 [VINBLASTINE]
- IC50 [1]: 27.1 nM
- IC50 [2]: 7.53 nM
- IC50 [4]: 68.7 nM
- IC50 [5]: > 100 nM
- IC50 [6]: 0.698 nM
- IC50 [65]: 21.8 nM
- IC50 [7]: 8.76 nM
- IC50 [8]: 8.06 nM
- IC50 [9]: 1.66 nM
- IC50 [10]: 40.7 nM
- IC50 [11]: 16.4 nM
- IC50 [12]: > 100 nM
- IC50 [14]: 18 nM
- IC50 [15]: 7.25 nM
- IC50 [17]: > 100 nM
- IC50 [20]: 1.7 nM
- IC50 [21]: 3.39 nM
- IC50 [23]: 20.8 nM
- IC50 [24]: 18.9 nM
- IC50 [26]: 16.1 nM
- IC50 [27]: 7.45 nM
- IC50 [28]: 33.2 nM
- IC50 [29]: 8.05 nM
- IC50 [31]: 5.67 nM
- IC50 [32]: 8.67 nM
- IC50 [34]: 30.5 nM
- IC50 [36]: 15.7 nM
- IC50 [39]: > 100 nM
- IC50 [40]: 10.2 nM
- IC50 [41]: > 100 nM
- IC50 [42]: > 100 nM
- IC50 [44]: 34.3 nM
- IC50 [46]: 8.06 nM
- IC50 [47]: 1.22 nM
- IC50 [48]: > 100 nM
- IC50 [49]: 2.36 nM
- IC50 [50]: 5.58 nM
- IC50 [51]: 11.4 nM
- IC50 [52]: 10.1 nM
- IC50 [53]: 12.3 nM
- IC50 [54]: 6.65 nM
- IC50 [55]: 3.45 nM
- IC50 [57]: 2.37 nM
- IC50 [58]: 8.64 nM
- IC50 [59]: 32 nM
- IC50 [60]: 3.9 nM
- IC50 [61]: 1.66 nM
- IC50 [62]: 5.47 nM
- IC50 [63]: 5.49 nM
- IC50 [64]: 17.2 nM
